The results in this text go back to patent publication EP0908457B1, “3-(1,2-benzisothiazol- and isoxazol-5-Y1)-2,4(1H,3H)-pyrimidinedione or thione and 3-(1,2-benzisothiazol- and isoxazol-5-y1)-4(3H)-pyrimidinone or thione herbicidal agents” (BASF AKTIENGESELLSCHAFT, priority 1997, dated 1999).

Series [1] deals with Echinochloa oryzoides (Ard.) Fritsch. In words: Preemergence weed control under flooded paddy conditions, ECHORC (Watergrass (Calif.)). As to herbicidal effect rating, ECHORC: meaning of each grade not given here. It is filed as in vivo. The conditions noted are these: preemergence, flooded paddy, rated three to four weeks after treatment.
Another series concerns Cyperus iria. In words: Preemergence weed control under flooded paddy conditions, CYPIR (Rice Flatsedge). As to herbicidal effect rating, CYPIR: meaning of each grade not given here. It is filed as in vivo. The conditions noted are these: preemergence, flooded paddy, rated three to four weeks after treatment.
Series [2] deals with Cyperus serotinus, Rottb. Put plainly: Preemergence weed control under flooded paddy conditions, CYPSE (Flatsedge). As to herbicidal effect rating, CYPSE: meaning of each grade not given here. It is filed as in vivo. The conditions noted are these: preemergence, rated three to four weeks after treatment.
For series [3], the system named is Monochoria vaginalis, Presl. In words: Preemergence weed control under flooded paddy conditions, MOOVA (Monochoria). As to herbicidal effect rating, MOOVA: meaning of each grade not given here. Type of series: in vivo. The conditions noted are these: preemergence, flooded paddy, rated three to four weeks after treatment.
Another series deals with Sagittaria pygmaea, L. Put plainly: Preemergence weed control under flooded paddy conditions, SAGPY (Arrowhead (Pygmaea)). As to herbicidal effect rating, SAGPY: meaning of each grade not given here. It is filed as in vivo. As to conditions: preemergence, flooded paddy, rated three to four weeks after treatment.
For series [4], the system named is Oryza sativa, (L.) Tebonnet. In words: Rice tolerance to post-transplant applications under flooded paddy conditions (Example 187), ORYSAT (Rice, Tebonnet). As to herbicidal effect rating ORYSAT: meaning of each grade not given here. As to conditions: rated three to four weeks after treatment.

In the case of `Cn1c(C(F)(F)F)cc(=O)n(-c2ccc3snc(C=C(Cl)Cl)c3c2)c1=O` [Example 287, 2,4(1H,3H)-Pyrimidinedione, 3-[3-(2,2-dichlorovinyl)-1,2-benzisothiazol-5-yl]-1-methyl-6-(trifluoromethyl)-], the “ECHORC herbicidal effect rating” value in series [1] (Rate 0.0320 kg/ha) is reported as 0.0; in series [1] (Rate 0.0620 kg/ha) it was 2.0; in series [1] (Rate 0.1250 kg/ha) it was 5.0; in series [1] (Rate 0.2500 kg/ha) it was 7.0. Besides, the “CYPIR herbicidal effect rating” value with Cyperus iria (Rate 0.0320 kg/ha) is 0.0; in the series with Cyperus iria (Rate 0.0620 kg/ha) it was 9.0; in the series with Cyperus iria (Rate 0.1250 kg/ha), 9.0; in the series on Cyperus iria (Rate 0.2500 kg/ha), 9.0. The “CYPSE herbicidal effect rating” value worked out at 0.0 in series [2] (Rate 0.0320 kg/ha), 0.0 in series [2] (Rate 0.0620 kg/ha), 0.0 in series [2] (Rate 0.1250 kg/ha) and 4.0 in series [2] (Rate 0.2500 kg/ha). For the same compound, the “MOOVA herbicidal effect rating” value in series [3] (Rate 0.0320 kg/ha), in series [3] (Rate 0.0620 kg/ha), in series [3] (Rate 0.1250 kg/ha) and in series [3] (Rate 0.2500 kg/ha) was 9.0 each time. The “SAGPY herbicidal effect rating” value in the series with Sagittaria pygmaea, L. (Rate 0.0320 kg/ha) is on record as 0.0; in the series with Sagittaria pygmaea, L. (Rate 0.0620 kg/ha) it was 0.0; with Sagittaria pygmaea, L. (Rate 0.1250 kg/ha) it was 0.0; in the series on Sagittaria pygmaea, L. (Rate 0.2500 kg/ha), 0.0. The “ORYSAT herbicidal effect rating” value in series [4] (Rate 0.0320 kg/ha) was 0.0; in series [4] (Rate 0.0620 kg/ha) it was 3.0; in series [4] (Rate 0.1250 kg/ha) it was 3.0; in series [4] (Rate 0.2500 kg/ha) it was 5.0.
As for `COC(=O)C(C)Oc1ccc(-c2nsc3ccc(-n4c(=O)cc(C(F)(F)F)n(C)c4=O)cc23)cc1` (centres unmarked) [Example 258, Propionic acid, 2-{p-{5-[3,6-dihydro-3-methyl-2,6-dioxo-4-(trifluoromethyl)-1(2H)-pyrimidinyl]-1,2-benzisothiazol-3-yl}phenoxy}-, methyl ester], the “ECHORC herbicidal effect rating” value in series [1] (Rate 0.0320 kg/ha), in series [1] (Rate 0.0620 kg/ha), in series [1] (Rate 0.1250 kg/ha) and in series [1] (Rate 0.2500 kg/ha) was 0.0 in each case. The “CYPIR herbicidal effect rating” value with Cyperus iria (Rate 0.0320 kg/ha) is on record as 0.0; in the series on Cyperus iria (Rate 0.0620 kg/ha), 2.0; in the series on Cyperus iria (Rate 0.1250 kg/ha), 7.0; with Cyperus iria (Rate 0.2500 kg/ha), 8.0. Further, the “CYPSE herbicidal effect rating” value in series [2] (Rate 0.0320 kg/ha), in series [2] (Rate 0.0620 kg/ha) and in series [2] (Rate 0.1250 kg/ha) was 0.0 throughout. Further, the “MOOVA herbicidal effect rating” value in series [3] (Rate 0.0320 kg/ha), in series [3] (Rate 0.0620 kg/ha), in series [3] (Rate 0.1250 kg/ha) and in series [3] (Rate 0.2500 kg/ha) was 9.0 each time. Further, the “SAGPY herbicidal effect rating” value in the series on Sagittaria pygmaea, L. (Rate 0.0320 kg/ha) was found to be 0.0; in the series on Sagittaria pygmaea, L. (Rate 0.0620 kg/ha), 0.0; in the series with Sagittaria pygmaea, L. (Rate 0.1250 kg/ha) it was 0.0; with Sagittaria pygmaea, L. (Rate 0.2500 kg/ha), 0.0. Moreover, the “ORYSAT herbicidal effect rating” value in series [4] (Rate 0.0320 kg/ha) turned out to be 2.0; in series [4] (Rate 0.0620 kg/ha) it was 2.0; in series [4] (Rate 0.1250 kg/ha) it was 3.0; in series [4] (Rate 0.2500 kg/ha), 4.0.
On to `Cc1ccc(OCC(=O)N(C)O)c(-c2nsc3ccc(-n4c(=O)cc(C(F)(F)F)n(C)c4=O)cc23)c1` [Example 355, Acetohydroxamic acid, 2-{{2-{5-[3,6-dihydro-3-methyl-2,6-dioxo-4-(trifluoromethyl)-1(2H)pyrimidinyl]-1,2-benzisothiazol-3-yl}-p-tolyl}oxy}-N-methyl-], for which the “herbicidal effect rating, ECHORC” value in series [1] (Rate 0.0320 kg/ha) worked out at 7.0; in series [1] (Rate 0.0620 kg/ha), 9.0; in series [1] (Rate 0.1250 kg/ha), 9.0; in series [1] (Rate 0.2500 kg/ha), 9.0. Besides, the “herbicidal effect rating, CYPIR” value in the series on Cyperus iria (Rate 0.0320 kg/ha) came out at 4.5; with Cyperus iria (Rate 0.0620 kg/ha) it was 4.5; with Cyperus iria (Rate 0.1250 kg/ha), 6.5; in the series on Cyperus iria (Rate 0.2500 kg/ha), 5.0. The “herbicidal effect rating, CYPSE” value in series [2] (Rate 0.0320 kg/ha) came to 0.0; in series [2] (Rate 0.0620 kg/ha) it was 1.0; in series [2] (Rate 0.1250 kg/ha) it was 3.5; in series [2] (Rate 0.2500 kg/ha), 5.0. For the same compound, the “herbicidal effect rating, MOOVA” value in series [3] (Rate 0.0320 kg/ha), in series [3] (Rate 0.0620 kg/ha), in series [3] (Rate 0.1250 kg/ha) and in series [3] (Rate 0.2500 kg/ha) was 9.0 in each case. For the same compound, the “herbicidal effect rating, SAGPY” value in the series with Sagittaria pygmaea, L. (Rate 0.0320 kg/ha) was 2.0; in the series on Sagittaria pygmaea, L. (Rate 0.0620 kg/ha), 4.5; with Sagittaria pygmaea, L. (Rate 0.1250 kg/ha) it was 4.5; with Sagittaria pygmaea, L. (Rate 0.2500 kg/ha) it was 9.0. For the same compound, the “herbicidal effect rating ORYSAT” value in series [4] (Rate 0.0320 kg/ha) worked out at 2.5; in series [4] (Rate 0.0620 kg/ha) it was 3.0; in series [4] (Rate 0.1250 kg/ha) it was 5.5; in series [4] (Rate 0.2500 kg/ha), 5.0.
As for `Cn1c(C(F)(F)F)cc(=O)n(-c2ccc3snc(C(C#N)(Cc4ccccc4)Cc4ccccc4)c3c2)c1=O` [Example 582, 1,2-Benzisothiazole-3-acetonitrile, alpha,alpha-dibenzyl-5-[3,6-dihydro-3-methyl-2,6-dioxo-4-(trifluoromethyl)-1(2H)-pyrimidinyl]-], the “herbicidal effect rating, ECHORC” value was determined as 6.0 in series [1] (Rate 0.0320 kg/ha), 7.0 in series [1] (Rate 0.0620 kg/ha), 7.0 in series [1] (Rate 0.1250 kg/ha) and 9.0 in series [1] (Rate 0.2500 kg/ha). In addition, the “herbicidal effect rating, CYPIR” value is reported as 3.0 in the series on Cyperus iria (Rate 0.0320 kg/ha), 4.0 in the series on Cyperus iria (Rate 0.0620 kg/ha), 6.0 in the series on Cyperus iria (Rate 0.1250 kg/ha) and 6.0 in the series on Cyperus iria (Rate 0.2500 kg/ha). The “herbicidal effect rating, CYPSE” value is 0.0 in series [2] (Rate 0.0320 kg/ha), 0.0 in series [2] (Rate 0.0620 kg/ha), 0.0 in series [2] (Rate 0.1250 kg/ha) and 7.0 in series [2] (Rate 0.2500 kg/ha). In addition, the “herbicidal effect rating, MOOVA” value in series [3] (Rate 0.0320 kg/ha), in series [3] (Rate 0.0620 kg/ha), in series [3] (Rate 0.1250 kg/ha) and in series [3] (Rate 0.2500 kg/ha) was 7.0 in each case. Further, the “herbicidal effect rating, SAGPY” value in the series with Sagittaria pygmaea, L. (Rate 0.0320 kg/ha) was determined as 5.0; with Sagittaria pygmaea, L. (Rate 0.0620 kg/ha), 5.0; in the series with Sagittaria pygmaea, L. (Rate 0.1250 kg/ha), 6.0; in the series on Sagittaria pygmaea, L. (Rate 0.2500 kg/ha), 6.0. Besides, the “herbicidal effect rating ORYSAT” value amounted to 0.0 in series [4] (Rate 0.0320 kg/ha), 0.0 in series [4] (Rate 0.0620 kg/ha), 0.0 in series [4] (Rate 0.1250 kg/ha) and 3.0 in series [4] (Rate 0.2500 kg/ha).
In the case of `COC(=O)C(C)Oc1ccc(C(C)C)cc1-c1nsc2ccc(-n3c(=O)cc(C(F)(F)F)n(C)c3=O)cc12` (centres unmarked) [Example 30, Methyl 2-{2-{5-[3,6-dihydro-3-methyl-4-(trifluoromethyl)-2,6-dioxo-1(2H)-pyrimidinyl]-1,2-benzisothiazol-3-yl}-4-isopropylphenoxy}propionate], the “herbicidal effect rating, ECHORC” value in series [1] (0.0313 kg/ha) stood at 6.5; in series [1] (0.0625 kg/ha), 8.5; in series [1] (0.1250 kg/ha) it was 9.0; in series [1] (0.2500 kg/ha) it was 9.0. The “herbicidal effect rating, CYPIR” value is listed as 2.0 with Cyperus iria (0.0313 kg/ha), 6.0 in the series with Cyperus iria (0.0625 kg/ha), 8.0 in the series on Cyperus iria (0.1250 kg/ha) and 8.0 in the series with Cyperus iria (0.2500 kg/ha). Besides, the “herbicidal effect rating, CYPSE” value in series [2] (0.0313 kg/ha) is reported as 0.0; in series [2] (0.0625 kg/ha), 0.0; in series [2] (0.1250 kg/ha) it was 4.0; in series [2] (0.2500 kg/ha), 2.0. The “herbicidal effect rating, MOOVA” value in series [3] (0.0313 kg/ha), in series [3] (0.0625 kg/ha), in series [3] (0.1250 kg/ha) and in series [3] (0.2500 kg/ha) was 9.0 throughout. Also, the “herbicidal effect rating, SAGPY” value with Sagittaria pygmaea, L. (0.0313 kg/ha) came to 0.0; in the series on Sagittaria pygmaea, L. (0.0625 kg/ha), 0.0; with Sagittaria pygmaea, L. (0.1250 kg/ha), 2.0; in the series with Sagittaria pygmaea, L. (0.2500 kg/ha), 7.0. For the same compound, the “herbicidal effect rating, ORYSAT (rice tolerance)” value in series [4] (0.0313 kg/ha) was 2.0; in series [4] (0.0625 kg/ha), 3.0; in series [4] (0.1250 kg/ha), 3.0; in series [4] (0.2500 kg/ha) it was 3.5.
